In article PMC10866072, “Design, synthesis, molecular modelling and biological evaluation of novel 6-amino-5-cyano-2-thiopyrimidine derivatives as potent anticancer agents against leukemia and apoptotic inducers” (Journal of Enzyme Inhibition and Medicinal Chemistry, 2024):

Assays:
786-0 = format: cell-based; details: Homo sapiens, one dose 10^-5 M, 48 h
NCI/ADR-RES = format: cell-based; details: Homo sapiens, one dose 10^-5 M, 48 h
HOP-92 = format: cell-based; details: Homo sapiens, one dose 10^-5 M, 48 h
SR = format: cell-based; details: Homo sapiens, one dose 10^-5 M, 48 h
U251 = format: cell-based; details: Homo sapiens, U-251, one dose 10^-5 M, 48 h
OVCAR-3 = format: cell-based; details: Homo sapiens, one dose 10^-5 M, 48 h
RPMI-8226 = format: cell-based; details: Homo sapiens, one dose 10^-5 M, 48 h
SNB-19 = format: cell-based; details: Homo sapiens, one dose 10^-5 M, 48 h, read-out: % growth
M14 = format: cell-based; details: Homo sapiens, one dose 10^-5 M, 48 h
BT-549 = format: cell-based; details: Homo sapiens, one dose 10^-5 M, 48 h
UACC-62 = format: cell-based; details: Homo sapiens, one dose 10^-5 M, 48 h
OVCAR-5 = format: cell-based; details: Homo sapiens, one dose 10^-5 M, 48 h
ACHN = format: cell-based; details: Homo sapiens, one dose 10^-5 M, 48 h
RXF 393 = format: cell-based; details: Homo sapiens, RXF 393, 48 h, one dose 10^-5 M, 48 h, read-out: % growth
SW-620 = format: cell-based; details: Homo sapiens, one dose 10^-5 M, 48 h
MDA-MB-468 = format: cell-based; details: Homo sapiens, one dose 10^-5 M, 48 h
MOLT-4 = format: cell-based; details: Homo sapiens, one dose 10^-5 M, 48 h, read-out: % growth
HOP-62 = format: cell-based; details: Homo sapiens, one dose 10^-5 M, 48 h
CAKI-1 = format: cell-based; details: Homo sapiens, CAKI-1, 48 h, one dose 10^-5 M, 48 h
LOX IMVI = format: cell-based; details: Homo sapiens, one dose 10^-5 M, 48 h, read-out: % growth
UACC-257 = format: cell-based; details: Homo sapiens, one dose 10^-5 M, 48 h
SK-MEL-2 = format: cell-based; details: Homo sapiens, one dose 10^-5 M, 48 h
SN12C = format: cell-based, human; details: Homo sapiens, one dose 10^-5 M, 48 h
PC-3 = format: cell-based; details: Homo sapiens, one dose 10^-5 M, 48 h
HS 578T = format: cell-based; details: Homo sapiens; one dose 10^-5 M, 48 h; HS 578T; read-out: % growth
A549/ATCC = format: cell-based; details: Homo sapiens, one dose 10^-5 M, 48 h
HT29 = format: cell-based; details: Homo sapiens, HT-29, one dose 10^-5 M, 48 h
[1] = test system: full NCI 60 cell lines panel; details: for activity at 10 µM: Homo sapiens, 60 cell, 48 h, read-out: Mean % growth
HCC-2998 = format: cell-based; details: Homo sapiens, one dose 10^-5 M, 48 h
A498 = format: cell-based; details: Homo sapiens, one dose 10^-5 M, 48 h
HCT-15 = format: cell-based; details: Homo sapiens, one dose 10^-5 M, 48 h, read-out: % growth
T-47D = format: cell-based; details: Homo sapiens, T47D, one dose 10^-5 M, 48 h, read-out: % growth
SF-539 = format: cell-based; details: Homo sapiens, one dose 10^-5 M, 48 h
SF-268 = format: cell-based; details: Homo sapiens, one dose 10^-5 M, 48 h, read-out: % growth
HCT-116 = format: cell-based; details: Homo sapiens, one dose 10^-5 M, 48 h, read-out: % growth
MCF7 = format: cell-based; details: Homo sapiens, one dose 10^-5 M, 48 h, read-out: % growth
SF-295 = format: cell-based; details: Homo sapiens, one dose 10^-5 M, 48 h
SK-MEL-28 = format: cell-based; details: Homo sapiens, one dose 10^-5 M, 48 h
K-562 = format: cell-based; details: Homo sapiens, K562, one dose 10^-5 M, 48 h
MDA-MB-435 = format: cell-based; details: Homo sapiens, one dose 10^-5 M, 48 h, read-out: % growth
OVCAR-4 = format: cell-based; details: Homo sapiens, one dose 10^-5 M, 48 h
NCI-H226 = format: cell-based; details: Homo sapiens, one dose 10^-5 M, 48 h
UO-31 = format: cell-based; details: Homo sapiens, UO-31, 48 h, one dose 10^-5 M, 48 h
HL-60(TB) = format: cell-based; details: Homo sapiens, one dose 10^-5 M, 48 h
CCRF-CEM = format: cell-based; details: Homo sapiens, one dose 10^-5 M, 48 h
DU-145 = format: cell-based; details: Homo sapiens, one dose 10^-5 M, 48 h
NCI-H460 = format: cell-based; details: Homo sapiens, one dose 10^-5 M, 48 h, read-out: % growth
MALME-3M = format: cell-based; details: Homo sapiens, one dose 10^-5 M, 48 h
TK-10 = format: cell-based; details: Homo sapiens, one dose 10^-5 M, 48 h
OVCAR-8 = format: cell-based; details: Homo sapiens, one dose 10^-5 M, 48 h
COLO 205 = format: cell-based; details: Homo sapiens, one dose 10^-5 M, 48 h
SK-OV-3 = format: cell-based; details: Homo sapiens, one dose 10^-5 M, 48 h
NCI-H522 = format: cell-based; details: Homo sapiens, one dose 10^-5 M, 48 h
IGROV1 = format: cell-based; details: Homo sapiens, IGROV-1, one dose 10^-5 M, 48 h, read-out: % growth
MDA-MB-231/ATCC = format: cell-based; details: Homo sapiens, one dose 10^-5 M, 48 h
SK-MEL-5 = format: cell-based; details: Homo sapiens, one dose 10^-5 M, 48 h, read-out: % growth
EKVX = format: cell-based; details: Homo sapiens, one dose 10^-5 M, 48 h
KM12 = format: cell-based; details: Homo sapiens, one dose 10^-5 M, 48 h
NCI-H23 = format: cell-based; details: Homo sapiens, one dose 10^-5 M, 48 h, read-out: % growth

N=C(NN=Cc1ccc([N+](=O)[O-])cc1)c1c(N)nc(S)nc1-c1ccc(Cl)cc1Cl [Compound 4o, 4-amino-6–(2,4-dichlorophenyl)-2-mercapto-N'-[(4-nitrophenyl)methylene] pyrimidine-5-carboximidohydrazide]
% growth at 10 µM (786-0): 54.1% | cell growth percent at 10 µM (NCI/ADR-RES): 105% | % growth at 10 µM (HOP-92): 2.04% | percent cell growth at 10 µM (SR): 76.8% | % growth at 10 µM (U251): 67% | % growth at 10 µM (OVCAR-3): 110% | % growth at 10 µM (RPMI-8226): 97.3% | activity at 10 µM (SNB-19): 74.9% | % growth at 10 µM (M14): 102% | % cell growth at 10 µM (BT-549): 75.7% | % growth at 10 µM (UACC-62): 84.7% | percent cell growth at 10 µM (OVCAR-5): 111% | % growth at 10 µM (ACHN): 88.8% | activity at 10 µM (RXF 393): 73% | % growth at 10 µM (SW-620): 108% | percent cell growth at 10 µM (MDA-MB-468): 90.8% | activity at 10 µM (MOLT-4): 94% | % growth at 10 µM (HOP-62): 57% | % growth at 10 µM (CAKI-1): 78.8% | activity at 10 µM (LOX IMVI): 96.5% | percent cell growth at 10 µM (UACC-257): 104% | % growth at 10 µM (SK-MEL-2): 93.4% | % growth at 10 µM (SN12C): 96.1% | percent cell growth at 10 µM (PC-3): 96.8% | activity at 10 µM (HS 578T): 87.1% | % growth at 10 µM (A549/ATCC): 101% | % growth at 10 µM (HT29): 116% | activity at 10 µM [1]: 93.5% | % growth at 10 µM (HCC-2998): 106% | % growth at 10 µM (A498): 160% | activity at 10 µM (HCT-15): 103% | activity at 10 µM (T-47D): 95.3% | % growth at 10 µM (SF-539): 74.7% | activity at 10 µM (SF-268): 94.9% | activity at 10 µM (HCT-116): 85.2% | activity at 10 µM (MCF7): 88.2% | % cell growth at 10 µM (SF-295): 52.4% | % cell growth at 10 µM (SK-MEL-28): 113% | % growth at 10 µM (K-562): 95% | activity at 10 µM (MDA-MB-435): 108% | % growth at 10 µM (OVCAR-4): 111% | % growth at 10 µM (NCI-H226): 82.1% | % cell growth at 10 µM (UO-31): 98.3% | % growth at 10 µM (HL-60(TB)): 103% | % cell growth at 10 µM (CCRF-CEM): 106% | % growth at 10 µM (DU-145): 115% | activity at 10 µM (NCI-H460): 114% | % growth at 10 µM (MALME-3M): 73% | % cell growth at 10 µM (TK-10): 142% | % growth of cells at 10 µM (OVCAR-8): 98.4% | % growth at 10 µM (COLO 205): 115% | % growth at 10 µM (SK-OV-3): 89.1% | % growth at 10 µM (NCI-H522): 78.5% | activity at 10 µM (IGROV1): 94.9% | % growth at 10 µM (MDA-MB-231/ATCC): 77.5% | activity at 10 µM (SK-MEL-5): 104% | % cell growth at 10 µM (EKVX): 98.9% | % growth at 10 µM (KM12): 108% | activity at 10 µM (NCI-H23): 90.2%

COc1ccc(C=NNC(=N)c2c(N)nc(S)nc2-c2ccc(Cl)cc2Cl)cc1 [Compound 4p, 4-amino-6–(2,4-dichlorophenyl)-2-mercapto-N'-[(4-methoxyphenyl)methylene] pyrimidine-5-carboximidohydrazide]
% growth at 10 µM (786-0): 90.2% | cell growth percent at 10 µM (NCI/ADR-RES): 114% | % growth at 10 µM (HOP-92): 74.8% | percent cell growth at 10 µM (SR): 97.5% | % growth at 10 µM (U251): 103% | % growth at 10 µM (OVCAR-3): 113% | % growth at 10 µM (RPMI-8226): 99.4% | activity at 10 µM (SNB-19): 93% | % growth at 10 µM (M14): 107% | % cell growth at 10 µM (BT-549): 95.6% | % growth at 10 µM (UACC-62): 97.2% | percent cell growth at 10 µM (OVCAR-5): 117% | % growth at 10 µM (ACHN): 110% | activity at 10 µM (RXF 393): 94.5% | % growth at 10 µM (SW-620): 105% | percent cell growth at 10 µM (MDA-MB-468): 105% | activity at 10 µM (MOLT-4): 95.7% | % growth at 10 µM (HOP-62): 90.2% | % growth at 10 µM (CAKI-1): 97.3% | activity at 10 µM (LOX IMVI): 103% | percent cell growth at 10 µM (UACC-257): 103% | % growth at 10 µM (SK-MEL-2): 115% | % growth at 10 µM (SN12C): 108% | percent cell growth at 10 µM (PC-3): 98.9% | activity at 10 µM (HS 578T): 105% | % growth at 10 µM (A549/ATCC): 102% | % growth at 10 µM (HT29): 106% | activity at 10 µM [1]: 104% | activity on all 60 cancer cell lines tested (in words) ([1]; one dose): weak activity | % growth at 10 µM (HCC-2998): 118% | % growth at 10 µM (A498): 138% | activity at 10 µM (HCT-15): 106% | activity at 10 µM (T-47D): 100% | % growth at 10 µM (SF-539): 96.8% | activity at 10 µM (SF-268): 104% | activity at 10 µM (HCT-116): 99.8% | activity at 10 µM (MCF7): 91.5% | % cell growth at 10 µM (SF-295): 85.8% | % cell growth at 10 µM (SK-MEL-28): 112% | % growth at 10 µM (K-562): 102% | activity at 10 µM (MDA-MB-435): 113% | % growth at 10 µM (OVCAR-4): 122% | % growth at 10 µM (NCI-H226): 97.2% | % cell growth at 10 µM (UO-31): 97.7% | % growth at 10 µM (HL-60(TB)): 96.9% | % cell growth at 10 µM (CCRF-CEM): 99.1% | % growth at 10 µM (DU-145): 110% | activity at 10 µM (NCI-H460): 113% | % growth at 10 µM (MALME-3M): 89.4% | % cell growth at 10 µM (TK-10): 143% | % growth of cells at 10 µM (OVCAR-8): 103% | % growth at 10 µM (COLO 205): 127% | % growth at 10 µM (SK-OV-3): 108% | % growth at 10 µM (NCI-H522): 97.5% | activity at 10 µM (IGROV1): 108% | % growth at 10 µM (MDA-MB-231/ATCC): 90.5% | activity at 10 µM (SK-MEL-5): 105% | % cell growth at 10 µM (EKVX): 108% | % growth at 10 µM (KM12): 104% | activity at 10 µM (NCI-H23): 100%
